For 22 compounds, IC50 results are on record in patent US8759334B2, “Compounds useful for the treatment of metabolic and inflammatory diseases” (Galapagos NV, priority 2011, dated 2014).

In general, IC50 refers to the concentration at which inhibition is half-maximal.

This test addresses T1, GPR43 (Homo sapiens, UniProt O15552).
T1 construct: expressed in transfected cells
T1 sequence (O15552 1-330): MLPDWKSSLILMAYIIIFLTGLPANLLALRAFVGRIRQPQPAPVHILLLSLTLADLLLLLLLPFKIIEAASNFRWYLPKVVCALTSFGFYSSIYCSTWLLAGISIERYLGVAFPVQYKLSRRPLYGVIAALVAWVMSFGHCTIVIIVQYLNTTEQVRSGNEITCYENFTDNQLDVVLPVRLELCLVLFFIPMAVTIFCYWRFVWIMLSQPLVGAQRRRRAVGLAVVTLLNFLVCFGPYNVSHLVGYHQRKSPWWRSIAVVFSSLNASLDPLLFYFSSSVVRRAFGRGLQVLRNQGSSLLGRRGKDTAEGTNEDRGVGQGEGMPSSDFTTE
In words: Calcium mobilization assay with probenecid. In kind it is cell-based. To be noted: GPR43 stably expressing cells; triggered with sodium acetate at EC80; 2.5 mM probenecid; read-out: GPR43 assay with probenicid IC50. The procedure: The following assay can be used for determination of GPR43 activation. The assay measures intracellular calcium release induced by activation of GPR43. On day 1, GPR43 stably expressing cells were detached with mild trypsinization (Trypsin, 0.25% with EDTA 4Na, 5× diluted in PBS) centrifuged at 1000 rpm for 5 min and resuspended at 6.000 cells/25 […] medium (DMEM supplemented with 10% FBS, 10 μg/mL puromycin and 1% Pen/Strep). The cells were distributed in poly-D-lysine coated 384 well plates (black with clear bottom, 25 μL/well) and incubated overnight at 37° C. 10% CO2.
On day 2, 25 μL of a fluorescent Ca^2+ indicator (Calcium 4 assay; Molecular Devices) supplemented with 2.5 mM probenecid was added on top of the cells and incubated for 2 h at 37° C. Subsequently, compounds at increasing concentration (10 μL/well) were added to the plate and incubated for 15 min at 37° C.
To measure agonist activity of the compounds, compound was added to the well and the Ca^2+-flux was measured simultaneously to the […] of compound.
(In general: Calcium flux is commonly read through the fluorescence of an indicator in the cells.)
With `Cc1cc(C)cc(CC(=O)N2CCC2(C)C(=O)N(CCc2nnn[nH]2)Cc2ccc(Cl)cc2)c1` (stereo not shown) [Compound 109, 1-[2-(3,5-Dimethyl-phenyl)-acetyl]-2-methyl-azetidine-2-carboxylic acid (4-chloro-benzyl)-[2-(1H-tetrazol-5-yl)-ethyl]-amide], the IC50 was in the range of 101 to 500 nM.
On to `CCCC1(C(=O)N(CCCC(=O)O)Cc2cccc(Cl)c2)CCN1C(=O)c1csc2ccccc12` (stereo not shown) [Compound 204, 4-[[1-(Benzo[b]thiophene-3-carbonyl)-2-propyl-azetidine-2-carbonyl]-(3-chloro-benzyl)-amino]-butyric acid], for which the IC50 was in the range of 0.01 to 100 nM.
As to `CN(Cc1ccc(Cl)cc1)C(=O)C1(C)CCN1C(=O)c1ccc2ccccc2c1` (stereo not shown) [Compound 126, 1-(2-naphthoyl)-N-(4-chlorobenzyl)-N,2-dimethylazetidine-2-carboxamide], the half-inhibitory concentration (IC50) was more than 1000 nM.
Then `CC1(C(=O)N(CCCC(=O)O)Cc2ccc3cn[nH]c3c2)CCN1C(=O)Cc1coc2ccccc12` (stereo not shown) [Compound 156, 4-[[1-(2-Benzofuran-3-yl-acetyl)-2-methyl-azetidine-2-carbonyl]-(1H-indazol-6-ylmethyl)-amino]-butyric acid], with 101 to 500 nM; and `COc1ccc(CNS(=O)(=O)CCCN(Cc2ccc(Cl)cc2)C(=O)C2(C)CCN2C(=O)Cc2csc3ccccc23)c(OC)c1` (stereo not shown) [Compound 178, 1-(2-Benzo[b]thiophen-3-yl-acetyl)-2-methyl-azetidine-2-carboxylic acid (4-chloro-benzyl)-[3-(2,4-dimethoxy-benzylsulfamoyl)-propyl]-amide], with more than 1000 nM; and `Cc1cc(C)cc(NC(=O)N2CCC2(C)C(=O)N(CCCC(=O)O)Cc2ccc(Cl)cc2)c1` (stereo not shown) [Compound 200, 4-{(4-chloro-benzyl)-[1-(3,5-dimethyl-phenylcarbamoyl)-2-methyl-azetidine-2-carbonyl]-amino}-butyric acid], with more than 1000 nM.
Then `CC1(C(=O)N(CCCC(=O)O)c2ccc(Cl)cn2)CCN1C(=O)c1csc2ccccc12` (stereo not shown) [Compound 250, 4-(1-(benzo[b]thiophene-3-carbonyl)-N-(5-chloropyridin-2-yl)-2-methylazetidine-2-carboxamido)butanoic acid], with 501 to 1000 nM; and `COC(=O)CCN(Cc1cccc(Cl)c1)C(=O)C1(C)CCN1C(=O)Cc1csc2ccccc12` (stereo not shown) [Compound 173, 3-[[1-(2-Benzo[b]thiophen-3-yl-acetyl)-2-methyl-azetidine-2-carbonyl]-(3-chloro-benzyl)-amino]-propionic acid methyl ester], with 101 to 500 nM; and `CC1(C(=O)N(CCC(=O)O)Cc2ccc(Cl)cc2)CCN1C(=O)Cc1coc2ccccc12` (stereo not shown) [Compound 154, 3-[[1-(2-Benzofuran-3-yl-acetyl)-2-methyl-azetidine-2-carbonyl]-(4-chloro-benzyl)-amino]-propionic acid], with more than 1000 nM.
`CC1(C(=O)N(CCCC(=O)O)Cc2ccn3ccnc3c2)CCN1C(=O)Cc1csc2ccccc12` (stereo not shown) [Compound 177, 4-{[1-(2-Benzo[b]thiophen-3-yl-acetyl)-2-methyl-azetidine-2-carbonyl]-imidazo[1,2-a]pyridin-7-ylmethyl-amino}-butyric acid]: the concentration for half-maximal inhibition (IC50) was more than 1000 nM.
Then `CC[C@]1(C(=O)N(CCCS(N)(=O)=O)[C@@H](C)c2ccc(Cl)cc2)CCN1C(=O)c1csc2ccccc12` [Compound 244, (R)-1-(benzo[b]thiophene-3-carbonyl)-N-((S)-1-(4-chlorophenyl)ethyl)-2-ethyl-N-(3-sulfamoylpropyl)azetidine-2-carboxamide], with more than 1000 nM.
Take `CNS(=O)(=O)CCCN(Cc1ccc(Cl)cc1)C(=O)C1(C)CCN1C(=O)Cc1cc(C)cc(C)c1` (stereo not shown) [Compound 174, 1-[2-(3,5-Dimethyl-phenyl)-acetyl]-2-methyl-azetidine-2-carboxylic acid (4-chloro-benzyl)-(3-methylsulfamoyl-propyl)-amide]: the IC50 was 101 to 500 nM.
Then `CCCC1(C(=O)N(CCCC(=O)NS(C)(=O)=O)Cc2cccc(Cl)c2)CCN1C(=O)c1csc2ccccc12` (stereo not shown) [Compound 232, 1-(benzo[b]thiophene-3-carbonyl)-N-(3-chlorobenzyl)-N-(4-(methylsulfonamido)-4-oxobutyl)-2-propylazetidine-2-carboxamide], with 101 to 500 nM; and `CC1(C(=O)N(CCCC(=O)O)Cc2ccc(Cl)cc2)CCN1C(=O)Oc1ccc(F)cc1Cl` (stereo not shown) [Compound 239, 4-(1-((2-chloro-4-fluorophenoxy)carbonyl)-N-(4-chlorobenzyl)-2-methylazetidine-2-carboxamido)butanoic acid], with more than 1000 nM.
Then `COC(=O)CCN(Cc1ccc(Cl)cc1)C(=O)C1(C)CCN1C(=O)Cc1coc2ccccc12` (stereo not shown) [Compound 150, 3-[[1-(2-Benzofuran-3-yl-acetyl)-2-methyl-azetidine-2-carbonyl]-(4-chloro-benzyl)-amino]-propionic acid methyl ester], with 101 to 500 nM; and `CN(Cc1ccc(Cl)cc1)C(=O)C1(C)CCN1C(=O)c1ccc2occc2c1` (stereo not shown) [Compound 121, 1-(benzofuran-5-carbonyl)-N-(4-chlorobenzyl)-N,2-dimethylazetidine-2-carboxamide], with more than 1000 nM.
As for `C[C@H](c1ccc(Cl)cc1)N(CCCC(=O)O)C(=O)[C@@]1(C)CCN1C(=O)c1csc2ccccc12` [Compound 197, 4-{[(R)-1-(Benzo[b]thiophene-3-carbonyl)-2-methyl-azetidine-2-carbonyl]-[(R)-1-(4-chloro-phenyl)-ethyl]-amino}-butyric acid], the IC50 is 501 to 1000 nM.
On to `CC1(C(=O)N(CCCC(=O)O)c2cccc(Cl)c2)CCN1C(=O)c1csc2ccccc12` (stereo not shown) [Compound 248, 4-(1-(benzo[b]thiophene-3-carbonyl)-N-(3-chlorophenyl)-2-methylazetidine-2-carboxamido)butanoic acid], for which the IC50 lay within 101 to 500 nM.
Consider `Cc1cc(C)cc(CC(=O)N2CCC2(C)C(=O)N(Cc2ccc(Cl)cc2)Cc2cc(O)[nH]n2)c1` (stereo not shown) [Compound 133, 1-[2-(3,5-Dimethyl-phenyl)-acetyl]-2-methyl-azetidine-2-carboxylic acid (4-chloro-benzyl)-(5-hydroxy-1H-pyrazol-3-ylmethyl)-amide], for which the half-inhibitory concentration (IC50) fell in the range of 0.01 to 100 nM.
Then `Cc1cc(C)cc(CC(=O)N2CCC2(C)C(=O)N(CCc2noc(O)n2)Cc2ccc(Cl)cc2)c1` (stereo not shown) [Compound 107, 1-[2-(3,5-Dimethyl-phenyl)-acetyl]-2-methyl-azetidine-2-carboxylic acid (4-chloro-benzyl)-[2-(5-hydroxy-[1,2,4]oxadiazol-3-yl)-ethyl]-amide], with more than 1000 nM.
Then `O=C(O)CCCN(Cc1cccc(Cl)c1)C(=O)C1(Cc2ccc(F)cc2)CCN1C(=O)c1csc2ccccc12` (stereo not shown) [Compound 219, 4-(1-(benzo[b]thiophene-3-carbonyl)-N-(3-chlorobenzyl)-2-(4-fluorobenzyl)azetidine-2-carboxamido)butanoic acid], with 101 to 500 nM; and `CC1(C(=O)N(CCS(N)(=O)=O)Cc2ccc(Cl)cc2)CCN1C(=O)c1csc2ccccc12` (stereo not shown) [Compound 192, 1-(Benzo[b]thiophene-3-carbonyl)-2-methyl-azetidine-2-carboxylic acid (4-chloro-benzyl)-(2-sulfamoyl-ethyl)-amide], with 0.01 to 100 nM.
